Data: the supplement of paper PMC12137928
Structures can show the parent of a compound that is named as a salt.

What was measured:
HCT116 [1] = test: efficacy (maximum % inhibition of viability vs DMSO); higher = more cytotoxic; settings: 72 h
Outline: (§1)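 IC50 and maximal efficacy were derived from four-parameter Hill curve fits. The underlying CellTiter-Glo luminescence was scaled so that vehicle equals 0% and positive control equals -100%, and was then pattern-corrected. HCT116 cells had been seeded in 1536-well plates at 250 per well.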

HCT116 [2] = settings: 72 h
Outline: as §1

Row | Structure (SMILES) | IC50 cell viability (HCT116 [2]; ICRF193 0 nM) [µM] | IC50 cell viability (HCT116 [2]; ICRF193 200 nM) [µM] | efficacy (HCT116 [1]; ICRF193 0 nM) [%] | efficacy (HCT116 [1]; ICRF193 200 nM) [%]
1 | Nc1nc(Cl)nc2c1ncn2[C@H]1C[C@H](O)[C@@H](CO)O1 [Cladribine] | 1.3 | 0.651 | 56.1 | 66.1
2 | CN1CCC[C@@H]1CCO[C@](C)(c1ccccc1)c1ccc(Cl)cc1 [Clemastine fumarate] | 18.3 | 23.1 | 88 | 114
3 | Oc1c(I)cc(Cl)c2cccnc12 [Clioquinol] | 29.1 | 29.1 | 99.1 | 98.1
4 | NC(=O)C1(N2CCCCC2)CCN(CCCN2c3ccccc3CCc3ccc(Cl)cc32)CC1 [Clocapramine] | 23.1 | 18.3 | 117 | 105
5 | Nc1nc(Cl)nc2c1ncn2[C@@H]1O[C@H](CO)[C@@H](O)[C@@H]1F [Clofarabine] | 0.146 | 0.231 | 45.9 | 65.2
6 | CN(C)CCCN1c2ccccc2CCc2ccc(Cl)cc21 [Clomipramine hydrochloride] | 18.3 | 20.6 | 74.9 | 90.5
7 | COC(=O)[C@H](c1ccccc1Cl)N1CCc2sccc2C1 [Clopidogrel bisulfate] | 18.3 | 23.1 | 67.2 | 76.8
8 | Cc1cc(C(C#N)c2ccc(Cl)cc2)c(Cl)cc1NC(=O)c1cc(I)cc(I)c1O (stereo unspecified) [Closantel] | 9.2 | 10.3 | 70.3 | 77.1
9 | Clc1ccccc1C(c1ccccc1)(c1ccccc1)n1ccnc1 [Clotrimazole] | 18.3 | 16.4 | 102 | 94.7
10 | O=C(c1ccc(F)c(F)c1Nc1ccc(I)cc1F)N1CC(O)([C@@H]2CCCCN2)C1 [Cobimetinib] | 18.3 | 9.2 | 55.7 | 75.9
11 | COc1cc2c(c(OC)c1OC)-c1ccc(OC)c(=O)cc1[C@@H](NC(C)=O)CC2 [Colchicine] | 0.0326 | 0.0326 | 74 | 69.5
12 | Cc1nc2c([nH]1)-c1ccccc1N(C(=O)c1ccc(NC(=O)c3ccccc3-c3ccccc3)cc1)CC2 [Conivaptan hydrochloride] | > 45.8 | 29.1 | – | 60
13 | COc1c(OCCCN2CCOCC2)ccc2c1N=C(NC(=O)c1cnc(N)nc1)N1CCN=C21 [Copanlisib] | 0.944 | 0.473 | 59.1 | 65.9
14 | C[C@H]1O[C@@H](O[C@H]2[C@@H](O)C[C@H](O[C@H]3[C@@H](O)C[C@H](O[C@H]4CC[C@@]5(C)[C@H](CC[C@@H]6[C@@H]5CC[C@]5(C)[C@@H](C7=CC(=O)OC7)CC[C@]65O)C4)O[C@@H]3C)O[C@@H]2C)C[C@H](O)[C@@H]1O [DIGITOXIN] | 0.0651 | > 45.8 | 73.1 | –
15 | CO[C@H]1C[C@H](O[C@H]2[C@H](C)O[C@@H](O[C@@H]3/C(C)=C/C[C@@H]4C[C@@H](C[C@]5(C=C[C@H](C)[C@@H](C6CCCCC6)O5)O4)OC(=O)[C@@H]4C=C(C)[C@@H](O)[C@H]5OC/C(=C\C=C\[C@@H]3C)[C@]54O)C[C@@H]2OC)O[C@@H](C)[C@@H]1O [DORAMECTIN] | 13 | 7.3 | 112 | 106
16 | CC(C)(C)c1nc(-c2cccc(NS(=O)(=O)c3c(F)cccc3F)c2F)c(-c2ccnc(N)n2)s1 [Dabrafenib] | 23.1 | 9.2 | 46.2 | 81.6
17 | CN(C)/N=N/c1[nH]cnc1C(N)=O [Dacarbazine] | 7.3 | 16.4 | 66.6 | 91.9
18 | C#C[C@]1(O)CC[C@H]2[C@@H]3CCC4=Cc5oncc5C[C@]4(C)[C@H]3CC[C@@]21C [Danazol] | > 45.8 | 20.6 | – | 47.9
19 | Cc1nc(Nc2ncc(C(=O)Nc3c(C)cccc3Cl)s2)cc(N2CCN(CCO)CC2)n1 [Dasatinib] | 29.1 | 23.1 | 74.6 | 105
20 | O=C(O)c1ccc(-n2nc(-c3ccccc3O)nc2-c2ccccc2O)cc1 [Deferasirox] | 18.3 | 29.1 | 99.7 | 109
21 | CN(C)[C@@H]1C(O)=C(C(N)=O)C(=O)[C@@]2(O)C(O)=C3C(=O)c4c(O)ccc(Cl)c4[C@@H](O)[C@H]3C[C@@H]12 [Demeclocycline hydrochloride] | > 45.8 | 16.4 | – | 40
22 | COC(=O)[C@H]1[C@H]2C[C@@H]3c4[nH]c5ccccc5c4CCN3C[C@H]2C[C@@H](OC(=O)c2cc(OC)c(OC)c(OC)c2)[C@@H]1OC [Deserpidine] | 29.1 | 25.9 | 59.1 | 48.2
23 | CNCCCN1c2ccccc2CCc2ccccc21 [Desipramine hydrochloride] | > 45.8 | 18.3 | – | 47.5
24 | N=C(N)c1ccc(OCCCOc2ccc(C(=N)N)cc2Br)c(Br)c1 [Dibromopropamidine dihydrochloride] | > 45.8 | 18.3 | – | 51.6
25 | Oc1ccc(Cl)cc1Cc1cc(Cl)ccc1O [Dichlorophen] | 10.3 | 8.2 | 106 | 99.9

Second part, led by results:

Row | IC50 cell viability (HCT116 [2]; ICRF193 0 nM) [µM] | IC50 cell viability (HCT116 [2]; ICRF193 200 nM) [µM] | Structure (SMILES) | efficacy (HCT116 [1]; ICRF193 0 nM) [%] | efficacy (HCT116 [1]; ICRF193 200 nM) [%]
26 | 20.6 | 20.6 | C[C@@H](NCCCc1cccc(C(F)(F)F)c1)c1cccc2ccccc12 [Cinacalcet hydrochloride] | 87.6 | 94.6
27 | 20.6 | 14.6 | CCCC(=O)O[C@]1(C(=O)CCl)[C@H](C)C[C@@H]2[C@@H]3CCC4=CC(=O)C=C[C@]4(C)[C@]3(F)C(=O)C[C@@]21C [Clobetasone butyrate] | 50.4 | 40.9
28 | 5.8 | 5.8 | O=C(Nc1ccc(Cl)cc1)Nc1ccc(Cl)c(C(F)(F)F)c1 [Cloflucarban] | 98.6 | 98.1
29 | 18.3 | 20.6 | CCN(CC)CCOc1ccc(C(=C(Cl)c2ccccc2)c2ccccc2)cc1 [Clomifene citrate] | 110 | 120
30 | > 45.8 | 4.11 | Clc1cccc(Cl)c1NC1=NCCN1 [Clonidine] | – | 68.5
31 | 14.6 | > 45.8 | CC(C)c1nc(CN(C)C(=O)N[C@@H](CCN2CCOCC2)C(=O)N[C@H](CC[C@H](Cc2ccccc2)NC(=O)OCc2cncs2)Cc2ccccc2)cs1 [Cobicistat] | 40.1 | –
32 | > 45.8 | 20.6 | CN(C)CCC=C1c2ccccc2C=Cc2ccccc21 [Cyclobenzaprine hydrochloride] | – | 52.3
33 | 29.1 | 29.1 | COC(=O)N[C@H](C(=O)N1CCC[C@H]1c1ncc(-c2ccc(-c3ccc(-c4cnc([C@@H]5CCCN5C(=O)[C@@H](NC(=O)OC)C(C)C)[nH]4)cc3)cc2)[nH]1)C(C)C [Daclatasvir dihydrochloride] | 103 | 101
34 | 29.1 | 23.1 | CN(C)[C@@H](CCOc1cccc2ccccc12)c1ccccc1 [Dapoxetine] | 71.4 | 70.9
35 | 0.461 | 0.0517 | COc1cccc2c1C(=O)c1c(O)c3c(c(O)c1C2=O)C[C@@](O)(C(C)=O)C[C@@H]3O[C@H]1C[C@H](N)[C@H](O)[C@H](C)O1 [Daunorubicin] | 102 | 83.8
36 | 29.1 | 29.1 | CC(=O)N(O)CCCCCNC(=O)CCC(=O)N(O)CCCCCNC(=O)CCC(=O)N(O)CCCCCN [Deferoxamine mesylate] | 99.1 | 105
37 | > 45.8 | 2.98 | Cc1cc(N)c2ccccc2[n+]1CCCCCCCCCC[n+]1c(C)cc(N)c2ccccc21 [Dequalinium dichloride] | – | 55.3
38 | 0.231 | 0.231 | C[C@H]1O[C@@H](O[C@H]2CC[C@@]3(C)[C@H](CC[C@@H]4[C@@H]3C[C@@H](O)[C@]3(C)[C@@H](C5=CC(=O)OC5)CC[C@]43O)C2)C[C@H](O)[C@@H]1O[C@H]1C[C@H](O)[C@H](O[C@H]2C[C@H](O)[C@H](O[C@@H]3O[C@H](CO)[C@@H](O)[C@H](O)[C@H]3O)[C@@H](C)O2)[C@@H](C)O1 [Deslanoside] | 85.6 | 78.1
39 | 20.6 | 20.6 | N#CC(c1ccc(Cl)cc1)c1c(Cl)cc(-n2ncc(=O)[nH]c2=O)cc1Cl (stereo unspecified) [Diclazuril] | 46.5 | 56.7
